# How the values were obtained:
# [1] = biological target: T1, VDRRγ (Homo sapiens, UniProt O75469); assay: VDRRγ reporter gene assay in transiently transfected Caco-2 (TC7) cells
# T1 sequence (O75469 1-434): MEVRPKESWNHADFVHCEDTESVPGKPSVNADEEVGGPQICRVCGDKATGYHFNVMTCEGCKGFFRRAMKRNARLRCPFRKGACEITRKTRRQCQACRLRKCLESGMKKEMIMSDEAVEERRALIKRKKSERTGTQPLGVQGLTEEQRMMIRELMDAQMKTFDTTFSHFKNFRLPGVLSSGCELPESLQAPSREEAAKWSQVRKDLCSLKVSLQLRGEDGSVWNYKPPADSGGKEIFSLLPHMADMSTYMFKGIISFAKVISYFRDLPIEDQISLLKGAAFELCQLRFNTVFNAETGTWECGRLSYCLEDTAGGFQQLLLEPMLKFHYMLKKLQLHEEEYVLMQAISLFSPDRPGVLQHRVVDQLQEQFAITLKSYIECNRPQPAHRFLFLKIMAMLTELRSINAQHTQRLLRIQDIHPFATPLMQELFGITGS
# Procedure: For identifying activators or ligands for VDRRγ, a library of substances structurally biased towards different classes of activators and ligands for nuclear receptors were tested. The activation of VDRRγ was analyzed in a reporter gene assay in transiently Caco-2 (TC7) cells (Carriere et al, 1994).
# [2] = biological target: T2, VDRRg (Homo sapiens, UniProt O75469); assay: Similar reporter assays as used in WO 96/22390; format: cell-based; details: data not shown
# T2 construct: expressed in transfected cells
# T2 sequence (O75469 1-434): T1 sequence (O75469 1-434)
# [3] = biological target: T3, GAL4-DBD/VDR-LBD fusion protein (Homo sapiens, UniProt P11473); assay: Transient co-transfection of CV-1 cells, GAL4-DBD/VDR-LBD with GAL4-luciferase reporter; format: cell-based; details: vitamin D3 1 μM, 48 hours
# T3 construct: fusion proteins of the GAL4-DBD fused to the LBD of either the VDR or the VDRR; expressed in transfected cells; host or cells: CV-1 cells
# T3 sequence (P11473 127-423 limits assumed): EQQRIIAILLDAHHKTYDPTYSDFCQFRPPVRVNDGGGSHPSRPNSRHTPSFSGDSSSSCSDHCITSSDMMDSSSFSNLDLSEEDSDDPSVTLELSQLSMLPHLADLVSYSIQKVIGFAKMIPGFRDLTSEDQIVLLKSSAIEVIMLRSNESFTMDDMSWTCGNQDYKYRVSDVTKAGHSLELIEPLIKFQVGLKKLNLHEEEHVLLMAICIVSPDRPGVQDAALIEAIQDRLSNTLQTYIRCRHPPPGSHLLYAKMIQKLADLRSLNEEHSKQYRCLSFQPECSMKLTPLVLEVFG
# Procedure: (§1) Transient transfections were performed to analyze if vitamin D3 activate the VDRRγ polypeptide. To this end, transient co-tansfections of CV-1 cells were performed with expression plasmids encoding fusion proteins of the GAL4-DBD fused to the LBD of either the VDR or the VDRR together with a reporter-plasmid containing five GAL4 responsive elements upstream of the luciferase gene. After transfection, cells were treated with vehicle (DMSO) alone or with vitamin D3 for 48 hours followed by harvesting of the cells and measurement of the luciferase activity in cell extracts.
# [4] = biological target: T4, GAL4-DBD/VDRRγ-LBD fusion protein (Homo sapiens, UniProt O75469); assay: Transient co-transfection of CV-1 cells, GAL4-DBD/VDRRγ-LBD with GAL4-luciferase reporter; format: cell-based; details: vitamin D3 1 μM, 48 hours
# T4 construct: fusion proteins of the GAL4-DBD fused to the LBD of either the VDR or the VDRR; expressed in transfected cells; host or cells: CV-1 cells
# T4 sequence (O75469 146-433 limits assumed): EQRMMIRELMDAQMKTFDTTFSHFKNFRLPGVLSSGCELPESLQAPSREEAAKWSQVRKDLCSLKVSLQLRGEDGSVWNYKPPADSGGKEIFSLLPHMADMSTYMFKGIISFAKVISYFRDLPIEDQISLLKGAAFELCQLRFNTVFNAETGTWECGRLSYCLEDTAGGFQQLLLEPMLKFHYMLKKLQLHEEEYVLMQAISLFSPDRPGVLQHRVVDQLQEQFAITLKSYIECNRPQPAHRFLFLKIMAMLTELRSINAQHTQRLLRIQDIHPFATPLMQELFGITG
# Procedure: as §1
smiles,measurement,setting,value
"CC(=O)[C@H]1CC[C@H]2[C@@H]3CC[C@H]4CC(=O)CC[C@]4(C)[C@H]3CC[C@]12C [5α-pregnane-3,20-dione]",activation of VDRRγ (in words),"[1]; Caco-2 (TC7) cells, FIG. 10",did not activate
"CC(=O)[C@H]1CC[C@H]2[C@@H]3CC[C@@H]4CC(=O)CC[C@]4(C)[C@H]3CC[C@]12C [5β-pregnane-3,20-dione]",activation of VDRRγ (in words),"[1]; Caco-2 (TC7) cells, FIG. 10",efficient activation
"CC(=O)[C@H]1[C@H](C#N)C[C@H]2[C@@H]3CC=C4C[C@@H](O)CC[C@]4(C)[C@H]3CC[C@@]21C [PCN, pregnenolone 16α-carbonitrile]",activation of VDRRγ (in words),"[1]; Caco-2 cells, 10 μM, FIG. 11",not activated
same,activation of human VDRRγ polypeptides (summary statement),"[1]; VDRRγ-1 and VDRRγ-2, no concentration given",not activated
CC#C[C@]1(O)CC[C@H]2[C@@H]3CCC4=CC(=O)CCC4=C3[C@@H](c3ccc(N(C)C)cc3)C[C@@]21C [RU486],increase in VDRRγ mediated reporter gene activity,[1],slight increase (two fold)
CCCCOC(=O)c1ccc(N)cc1 [butyl 4-NH2 Benzoate],activation of VDRRg,[2],did not activate
C=C1CC[C@H](O)C/C1=C/C=C1\CCC[C@]2(C)[C@@H]([C@H](C)CCCC(C)C)CC[C@@H]12 [vitamin D3],transactivation of GAL4-DBD/VDR-LBD (luciferase activity),[3],transactivate
same,transactivation of GAL4-DBD/VDRRγ-LBD (luciferase activity),[4],not
